Assay [1] concerns the target T1, CBP (Homo sapiens, UniProt Q92793). Description: CBP immunoblotting in 22RV1 subcutaneous xenograft tumors. The format is in vivo, athymic nude mice. On the set-up: from tissue; host or cells: 22RV1 subcutaneous xenograft tumours in athymic nude mice. As to conditions: single dose 40 mg/kg, intraperitoneally or orally, six hours after administration; FIG. 9. As to the method: (§1) In addition to cultured cells, athymic nude mice bearing 22RV1 subcutaneous xenograft tumors at the right flank were intraperitoneally or orally treated with 40 mg/kg bivalent compounds. Six hours after drug administration, animals were sacrificed for immunoblotting of P300 and CBP in homogenized xenograft tumor masses. […] Moreover, ICR mice were orally treated with 40 mg/kg bivalent compounds. Six hours after drug administration, animals were sacrificed for immunoblotting of CBP in homogenized lung tissues.
(§2) Athymic nude mice bearing 22RV1 subcutaneous xenograft tumors at the right flank were intraperitoneally or orally treated with selected bivalent compounds at 40 mg/kg. Six hours after drug administration, animals were sacrificed, and xenograft tumors were collected for immunoblotting of P300 and CBP.
(§3) Cultured cells or tissue chunks were washed with cold PBS once and lysed in cold RIPA buffer supplemented with protease inhibitors and phosphatase inhibitors (Beyotime Biotechnology). The solutions were then incubated at 4° C. for 30 minutes with gentle agitation to fully lyse cells. Cell lysates were centrifuged at 13,000 rpm for 10 minutes at 4° C. and pellets were discarded. Total protein concentrations in the lysates were determined by BCA assays (Beyotime Biotechnology). Cell lysates were mixed with Laemmli loading buffer to 1 X and heated at 99° C. for 5 min. Proteins were resolved on SDS-PAGE and visualized by chemiluminescence. Images were taken by a ChemiDoc MP Imaging system (Bio-Rad). Protein bands were quantitated using the accompanied software provided by Bio-Rad.
(§4) All animal experiments were performed under protocols approved by the Institutional Animal Care and Use Committee (IACUC) of Cullgen. Athymic nude mice (male, 5-weeks old) received 5 million 22RV1 cells subcutaneously inoculated at the right flank site. Twenty days following inoculation, tumors were approxmiately 500 mm^3 in size. Tumor-bearing mice were treated intraperitoneally or via oral gavage with vehicle or bivalent compounds at indicated doses. […]

The target of assay [2] is T2, P300 (Homo sapiens, UniProt Q09472). Description: P300 protein level by immunoblotting in LNCaP cells. It counts as cell-based. On the set-up: LNCaP or 22RV1 cells that express CBP/P300 proteins were treated with GNE-781 or the bivalent compounds; endogenous in cells; host or cells: LNCaP or 22RV1 (not given). As to conditions: single dose, FIG. 8. How it is done:
(§5) Specific exemplary bivalent compounds were characterized in LNCaP or 22RV1 cells. LNCaP or 22RV1 cells that express CBP/P300 proteins were treated with GNE-781 or the bivalent compounds disclosed herein (P-001 to P-265) for indicated hours. Cells were collected, lysed and subject to immunoblotting using an antibody specific to P300 or CBP proteins. Tubulin or vinculin was included as the loading control. DMSO was used as the negative control.
(§6) LNCaP (clone FGC), 22RV1 and other cells were cultured at 37° C. with 5% CO 2 in RPMI 1640 Medium supplemented with 10% fetal bovine serum. Cells were authenticated using the short tandem repeat (STR) assays. Mycoplasma test results were negative.
as §3
In general terms: A western blot detects proteins with antibodies after separation by electrophoresis.

Assay [3] addresses T1, CBP. Description: CBP protein level by immunoblotting in LNCaP cells. The format is cell-based. On the set-up: LNCaP or 22RV1 cells that express CBP/P300 proteins were treated with GNE-781 or the bivalent compounds; endogenous in cells; host or cells: LNCaP (clone FGC). As to conditions: single dose, FIG. 8. As to the method: as §5, §6, §3
For assay [4], the target named is T2, P300. Description: P300 immunoblotting in 22RV1 subcutaneous xenograft tumors. It counts as in vivo, athymic nude mice. On the set-up: from tissue; host or cells: 22RV1 subcutaneous xenograft tumours in athymic nude mice. As to conditions: single dose 40 mg/kg, intraperitoneally or orally, six hours after administration; FIG. 9. As to the method: as §1, §2, §3, §4

Assay [5] addresses T2, P300. As to the kind of experiment: percentage of inhibition (degradation) of p300 at 10 nM, Tables 2-4. It counts as cell-based. On the set-up: LNCaP or 22RV1 cells that express CBP/P300 proteins were treated with GNE-781 or the bivalent compounds; endogenous in cells; host or cells: LNCaP or 22RV1 (not given). As to conditions: read-out: Degradation (10 nM). Summed up:
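Degradation was measured at 10 nM. Cells or tissue were lysed in RIPA with protease and phosphatase inhibitors for 30 min at 4 °C and cleared, and protein was quantified by BCA. Lysates were resolved by SDS-PAGE, detected by chemiluminescent immunoblot, and bands were quantified by densitometry.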

The test system of assay [6] is LNCaP prostate cancer cell. As to the kind of experiment: LNCaP cell viability (CellTiter-Glo). It counts as cell-based. As to conditions: Homo sapiens, 72 h; LNCaP cell viability, 3 days, CellTiter-Glo; Table 4. The method in brief: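 CellTiter-Glo luminescence measured three days after dosing with a 12-point 3-fold compound dilution series. LNCaP cells seeded at 5000/well in RPMI 1640 with 10% FBS; data normalized to untreated controls and IC50 fitted by nonlinear least-squares regression.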

The IC50 is the concentration that inhibits the measured activity by half. A higher IC50 goes with lower potency.

“Also recorded” adds a separate entry of the source. Read-outs that look alike come from different tables or passages of the source. Bounds are passed on as bounds.

T1 sequence (Q92793 whole entry): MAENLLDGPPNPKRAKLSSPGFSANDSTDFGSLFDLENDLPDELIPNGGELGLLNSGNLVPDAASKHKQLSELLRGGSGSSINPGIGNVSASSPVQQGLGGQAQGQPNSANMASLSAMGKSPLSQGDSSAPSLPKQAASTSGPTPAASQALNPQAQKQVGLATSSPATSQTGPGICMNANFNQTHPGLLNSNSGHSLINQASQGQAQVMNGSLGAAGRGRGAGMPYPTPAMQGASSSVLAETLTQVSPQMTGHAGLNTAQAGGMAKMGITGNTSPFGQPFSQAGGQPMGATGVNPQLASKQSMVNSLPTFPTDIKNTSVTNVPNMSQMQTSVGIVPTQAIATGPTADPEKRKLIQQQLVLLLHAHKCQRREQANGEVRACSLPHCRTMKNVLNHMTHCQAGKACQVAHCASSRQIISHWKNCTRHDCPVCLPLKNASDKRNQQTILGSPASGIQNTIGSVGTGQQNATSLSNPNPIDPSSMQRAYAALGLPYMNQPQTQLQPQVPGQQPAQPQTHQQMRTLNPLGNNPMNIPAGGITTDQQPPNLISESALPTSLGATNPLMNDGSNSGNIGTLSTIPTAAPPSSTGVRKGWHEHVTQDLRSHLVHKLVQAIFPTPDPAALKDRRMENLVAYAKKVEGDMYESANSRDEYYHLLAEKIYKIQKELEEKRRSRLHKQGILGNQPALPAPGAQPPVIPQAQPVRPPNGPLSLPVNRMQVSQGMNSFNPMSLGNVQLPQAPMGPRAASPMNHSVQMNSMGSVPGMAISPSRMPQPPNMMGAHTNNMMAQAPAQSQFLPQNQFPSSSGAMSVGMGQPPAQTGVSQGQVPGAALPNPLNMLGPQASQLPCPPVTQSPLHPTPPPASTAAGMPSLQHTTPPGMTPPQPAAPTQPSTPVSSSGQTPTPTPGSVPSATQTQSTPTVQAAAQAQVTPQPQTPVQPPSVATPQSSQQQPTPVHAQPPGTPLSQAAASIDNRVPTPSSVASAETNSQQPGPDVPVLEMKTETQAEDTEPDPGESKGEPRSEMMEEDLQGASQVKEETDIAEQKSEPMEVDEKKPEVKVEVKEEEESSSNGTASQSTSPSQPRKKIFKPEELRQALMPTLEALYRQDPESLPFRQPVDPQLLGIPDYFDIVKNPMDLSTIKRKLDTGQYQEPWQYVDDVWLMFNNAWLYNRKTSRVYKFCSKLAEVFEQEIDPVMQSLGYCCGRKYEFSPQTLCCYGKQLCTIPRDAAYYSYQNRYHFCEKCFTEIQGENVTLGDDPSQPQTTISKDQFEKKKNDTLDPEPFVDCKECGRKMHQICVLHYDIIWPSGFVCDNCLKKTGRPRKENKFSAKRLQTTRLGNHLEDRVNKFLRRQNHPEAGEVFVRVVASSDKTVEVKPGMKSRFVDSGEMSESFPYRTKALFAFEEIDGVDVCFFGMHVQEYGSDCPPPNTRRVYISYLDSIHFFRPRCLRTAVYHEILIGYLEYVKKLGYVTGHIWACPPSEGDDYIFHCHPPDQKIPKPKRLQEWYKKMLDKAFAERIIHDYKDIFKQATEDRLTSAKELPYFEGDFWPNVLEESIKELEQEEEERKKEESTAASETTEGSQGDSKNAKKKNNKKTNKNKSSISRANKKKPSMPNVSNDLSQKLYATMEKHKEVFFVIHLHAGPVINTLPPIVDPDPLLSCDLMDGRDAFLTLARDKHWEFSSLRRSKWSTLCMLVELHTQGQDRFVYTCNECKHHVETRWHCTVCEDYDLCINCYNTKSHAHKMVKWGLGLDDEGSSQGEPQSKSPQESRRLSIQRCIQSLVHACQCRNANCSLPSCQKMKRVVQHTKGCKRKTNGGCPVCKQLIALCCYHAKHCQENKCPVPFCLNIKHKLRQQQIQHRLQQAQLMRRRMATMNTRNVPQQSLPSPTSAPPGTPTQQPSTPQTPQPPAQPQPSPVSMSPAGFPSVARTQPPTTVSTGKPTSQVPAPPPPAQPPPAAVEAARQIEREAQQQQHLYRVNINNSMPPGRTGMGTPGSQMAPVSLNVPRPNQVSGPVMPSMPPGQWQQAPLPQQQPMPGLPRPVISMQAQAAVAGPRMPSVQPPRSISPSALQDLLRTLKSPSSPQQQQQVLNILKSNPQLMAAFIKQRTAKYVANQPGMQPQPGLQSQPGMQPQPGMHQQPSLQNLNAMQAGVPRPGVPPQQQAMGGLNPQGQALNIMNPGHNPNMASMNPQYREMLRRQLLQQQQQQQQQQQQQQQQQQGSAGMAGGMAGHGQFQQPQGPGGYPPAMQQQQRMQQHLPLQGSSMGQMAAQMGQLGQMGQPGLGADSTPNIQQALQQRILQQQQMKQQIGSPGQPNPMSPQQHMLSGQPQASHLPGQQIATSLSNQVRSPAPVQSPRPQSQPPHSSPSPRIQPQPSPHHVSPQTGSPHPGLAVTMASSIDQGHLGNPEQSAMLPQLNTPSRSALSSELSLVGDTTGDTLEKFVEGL
T2 sequence (Q09472 whole entry): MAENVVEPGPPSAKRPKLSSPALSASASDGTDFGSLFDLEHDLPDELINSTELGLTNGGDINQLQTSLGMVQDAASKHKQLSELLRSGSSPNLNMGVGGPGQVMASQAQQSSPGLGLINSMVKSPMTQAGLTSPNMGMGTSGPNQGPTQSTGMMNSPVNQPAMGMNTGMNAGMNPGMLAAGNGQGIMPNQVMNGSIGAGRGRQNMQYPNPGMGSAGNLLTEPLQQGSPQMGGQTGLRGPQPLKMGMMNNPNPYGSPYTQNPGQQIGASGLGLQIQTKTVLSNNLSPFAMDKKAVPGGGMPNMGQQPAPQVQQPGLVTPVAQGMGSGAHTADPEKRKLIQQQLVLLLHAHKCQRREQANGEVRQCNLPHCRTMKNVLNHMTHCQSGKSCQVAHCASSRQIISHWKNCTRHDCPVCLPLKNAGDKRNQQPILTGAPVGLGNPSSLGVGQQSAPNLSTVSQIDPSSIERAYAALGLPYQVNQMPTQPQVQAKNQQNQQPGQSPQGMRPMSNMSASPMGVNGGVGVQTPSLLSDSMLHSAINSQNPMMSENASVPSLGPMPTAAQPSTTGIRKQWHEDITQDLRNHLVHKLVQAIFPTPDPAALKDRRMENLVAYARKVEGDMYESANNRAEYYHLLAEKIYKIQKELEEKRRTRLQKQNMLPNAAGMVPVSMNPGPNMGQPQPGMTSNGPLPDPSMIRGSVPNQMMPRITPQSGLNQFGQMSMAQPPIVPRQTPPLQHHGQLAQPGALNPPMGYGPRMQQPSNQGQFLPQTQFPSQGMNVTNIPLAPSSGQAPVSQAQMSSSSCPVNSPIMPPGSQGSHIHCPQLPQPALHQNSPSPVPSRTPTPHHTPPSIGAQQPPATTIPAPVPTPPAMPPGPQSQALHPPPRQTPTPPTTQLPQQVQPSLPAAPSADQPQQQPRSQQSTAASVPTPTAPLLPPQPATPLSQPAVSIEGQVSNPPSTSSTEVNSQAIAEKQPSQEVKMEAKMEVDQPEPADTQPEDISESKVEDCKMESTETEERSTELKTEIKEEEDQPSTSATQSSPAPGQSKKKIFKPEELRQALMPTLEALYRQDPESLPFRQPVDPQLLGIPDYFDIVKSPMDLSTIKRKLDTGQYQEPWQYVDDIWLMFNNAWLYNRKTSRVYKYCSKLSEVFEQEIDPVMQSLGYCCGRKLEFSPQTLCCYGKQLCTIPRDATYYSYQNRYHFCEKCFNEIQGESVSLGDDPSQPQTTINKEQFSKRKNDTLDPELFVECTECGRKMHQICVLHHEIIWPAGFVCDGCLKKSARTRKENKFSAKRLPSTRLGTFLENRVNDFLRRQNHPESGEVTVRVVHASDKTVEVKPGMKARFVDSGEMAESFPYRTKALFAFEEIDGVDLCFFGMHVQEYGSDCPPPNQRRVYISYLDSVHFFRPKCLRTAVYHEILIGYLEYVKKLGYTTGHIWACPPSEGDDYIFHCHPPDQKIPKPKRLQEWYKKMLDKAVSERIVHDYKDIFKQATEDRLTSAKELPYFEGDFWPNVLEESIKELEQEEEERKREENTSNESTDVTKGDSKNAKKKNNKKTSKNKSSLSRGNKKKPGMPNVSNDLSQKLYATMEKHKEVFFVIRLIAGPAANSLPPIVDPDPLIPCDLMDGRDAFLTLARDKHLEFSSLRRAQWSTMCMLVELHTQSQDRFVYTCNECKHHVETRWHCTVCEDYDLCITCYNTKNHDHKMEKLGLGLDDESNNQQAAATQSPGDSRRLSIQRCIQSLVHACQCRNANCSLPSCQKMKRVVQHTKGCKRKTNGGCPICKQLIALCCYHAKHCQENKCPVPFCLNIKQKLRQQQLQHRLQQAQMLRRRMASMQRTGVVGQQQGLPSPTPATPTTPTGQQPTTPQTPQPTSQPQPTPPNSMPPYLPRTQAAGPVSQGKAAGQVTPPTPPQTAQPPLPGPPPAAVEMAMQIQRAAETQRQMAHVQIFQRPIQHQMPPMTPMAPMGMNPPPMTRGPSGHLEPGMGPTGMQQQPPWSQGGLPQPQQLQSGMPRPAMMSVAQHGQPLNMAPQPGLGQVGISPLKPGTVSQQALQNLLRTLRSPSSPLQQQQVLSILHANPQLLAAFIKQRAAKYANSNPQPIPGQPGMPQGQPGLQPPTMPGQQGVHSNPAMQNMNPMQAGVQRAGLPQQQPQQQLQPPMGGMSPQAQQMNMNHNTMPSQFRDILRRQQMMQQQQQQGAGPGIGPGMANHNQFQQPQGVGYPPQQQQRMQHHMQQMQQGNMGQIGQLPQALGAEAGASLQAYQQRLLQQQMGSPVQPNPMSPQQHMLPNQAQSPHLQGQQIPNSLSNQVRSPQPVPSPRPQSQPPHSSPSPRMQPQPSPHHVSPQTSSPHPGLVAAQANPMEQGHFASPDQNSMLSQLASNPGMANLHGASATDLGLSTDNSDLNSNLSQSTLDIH

As to `CNC(=O)N1CCc2c(c(N3CCCc4cc(-c5cnn(C)c5)c(C(F)F)cc43)nn2C2CCN(C(=O)CCCCCCCNc3ccc4c(c3)C(=O)N(C3CCC(=O)NC3=O)C4=O)CC2)C1` (stereo not drawn) [P-007, 3-(7-(difluoromethyl)-6-(1-methyl-1H-pyrazol-4-yl)-3,4-dihydroquinolin-1(2H)-yl)-1-(1-(8-((2-(2,6-dioxopiperidin-3-yl)-1,3-dioxoisoindolin-5-yl)amino)octanoyl)piperidin-4-yl)-N-methyl-1,4,6,7-tetrahydro-5H-pyrazolo[4,3-c]pyridine-5-carboxamide], the “CBP protein levels in xenograft tumors” value in assay [1] is recorded as “significantly reducing”. For the same compound, in assay [2], the “degradation of P300 in combination with pomalidomide, MG-132, Bortezomib or MLN4924” value is on record as “compromised; also recorded: could be neutralized”. For the same compound, the “degradation of CBP in combination with pomalidomide, MG-132, Bortezomib or MLN4924” value in assay [3] is “compromised; also recorded: could be neutralized”. The “P300 protein levels in xenograft tumors” value in assay [4] is “significantly reducing”.

For `CC(=O)N1CCc2c(c(N3CCCc4cc(-c5cnn(C)c5)c(C(F)F)cc43)nn2C2CCN(CCN3CCC(C#Cc4cccc5c4n(C)c(=O)n5C4CCC(=O)NC4=O)CC3)CC2)C1` (stereo not drawn) [P-251, 3-(4-((1-(2-(4-(5-acetyl-3-(7-(difluoromethyl)-6-(1-methyl-1H-pyrazol-4-yl)-3,4-dihydroquinolin-1(2H)-yl)-4,5,6,7-tetrahydro-1H-pyrazolo[4,3-c]pyridin-1-yl)piperidin-1-yl)ethyl)piperidin-4-yl)ethynyl)-3-methyl-2-oxo-2,3-dihydro-1H-benzo[d]imidazol-1-yl)piperidine-2,6-dione], the inhibition at 0.01 µM in assay [5] is more than 80%. The IC50 in assay [6] is 0.1 nM.

For the compound `CC(=O)N1CCc2c(c(N3CCCc4cc(-c5cnn(C)c5)c(C(F)F)cc43)nn2C2CCN(CCN3CCC(CCc4cccc5c4n(C)c(=O)n5C4CCC(=O)NC4=O)CC3)CC2)C1` (stereo not drawn) [P-252, 3-(4-(2-(1-(2-(4-(5-acetyl-3-(7-(difluoromethyl)-6-(1-methyl-1H-pyrazol-4-yl)-3,4-dihydroquinolin-1(2H)-yl)-4,5,6,7-tetrahydro-1H-pyrazolo[4,3-c]pyridin-1-yl)piperidin-1-yl)ethyl)piperidin-4-yl)ethyl)-3-methyl-2-oxo-2,3-dihydro-1H-benzo[d]imidazol-1-yl)piperidine-2,6-dione], in assay [5], the inhibition at 0.01 µM is more than 80%. Also, 0.1 nM corresponded to half-maximal inhibition in assay [6] (IC50).

As to `CC(=O)N1CCc2c(c(N3CCCc4cc(-c5cnn(C)c5)c(C(F)F)cc43)nn2C2CCN(C(=O)CCCNc3ccc(C(=O)NC4CCC(=O)NC4=O)c4ncccc34)CC2)C1` (stereo not drawn) [P-253, 5-((4-(4-(5-acetyl-3-(7-(difluoromethyl)-6-(1-methyl-1H-pyrazol-4-yl)-3,4-dihydroquinolin-1(2H)-yl)-4,5,6,7-tetrahydro-1H-pyrazolo[4,3-c]pyridin-1-yl)piperidin-1-yl)-4-oxobutyl)amino)-N-(2,6-dioxopiperidin-3-yl)quinoline-8-carboxamide], in assay [5] (p300, 10 nM, Table 4), the inhibition at 0.01 µM is more than 80%. In assay [6], this compound gave an IC50 of 2.6 nM.

For the compound `CC(=O)N1CCc2c(c(N3CCCc4cc(-c5cnn(C)c5)c(C(F)F)cc43)nn2C2CCN(C(=O)CNc3ccc(C(=O)NC4CCC(=O)NC4=O)c4ncccc34)CC2)C1` (stereo not drawn) [P-254, 5-((2-(4-(5-acetyl-3-(7-(difluoromethyl)-6-(1-methyl-1H-pyrazol-4-yl)-3,4-dihydroquinolin-1(2H)-yl)-4,5,6,7-tetrahydro-1H-pyrazolo[4,3-c]pyridin-1-yl)piperidin-1-yl)-2-oxoethyl)amino)-N-(2,6-dioxopiperidin-3-yl)quinoline-8-carboxamide], in assay [5] (p300, 10 nM, Table 4), the inhibition at 0.01 µM was more than 80%. The same compound yielded an IC50 in assay [6] of 5.1 nM.

On to `CC(=O)N1CCc2c(c(N3CCCc4cc(-c5cnn(C)c5)c(C(F)F)cc43)nn2C2CCN(C(=O)CC3CCN(c4ccc(C(=O)NC5CCC(=O)NC5=O)c5ncccc45)CC3)CC2)C1` (stereo not drawn) [P-256, 5-(4-(2-(4-(5-acetyl-3-(7-(difluoromethyl)-6-(1-methyl-1H-pyrazol-4-yl)-3,4-dihydroquinolin-1(2H)-yl)-4,5,6,7-tetrahydro-1H-pyrazolo[4,3-c]pyridin-1-yl)piperidin-1-yl)-2-oxoethyl)piperidin-1-yl)-N-(2,6-dioxopiperidin-3-yl)quinoline-8-carboxamide], for which the inhibition at 0.01 µM in assay [5] (p300, 10 nM, Table 4) was more than 80%. Besides, in assay [6], the IC50 is 1.3 nM.

As to `CC(=O)N1CCc2c(c(N3CCCc4cc(-c5cnn(C)c5)c(C(F)F)cc43)nn2C2CCN(C(=O)CCCCCCCCC(=O)Nc3cccc(NC4CCC(=O)NC4=O)c3)CC2)C1` (stereo not drawn) [P-264, 10-(4-(5-Acetyl-3-(7-(difluoromethyl)-6-(1-methyl-1H-pyrazol-4-yl)-3,4-dihydroquinolin-1(2H)-yl)-4,5,6,7-tetrahydro-1H-pyrazolo[4,3-c]pyridin-1-yl)piperidin-1-yl)-N-(3-((2,6-dioxopiperidin-3-yl)amino)phenyl)-10-oxodecanamide], the inhibition at 0.01 µM in assay [5] (p300, 10 nM, Table 4) is less than 20%. For the same compound, in assay [6], the half-maximal inhibitory concentration (IC50) is 486 nM.

Consider `CC(=O)N1CCc2c(c(N3CCCc4cc(-c5cnn(C)c5)c(C(F)F)cc43)nn2C2CCN(C(=O)CCCCCCCCCC(=O)Nc3cccc(NC4CCC(=O)NC4=O)c3)CC2)C1` (stereo not drawn) [P-265, 11-(4-(5-Acetyl-3-(7-(difluoromethyl)-6-(1-methyl-1H-pyrazol-4-yl)-3,4-dihydroquinolin-1(2H)-yl)-4,5,6,7-tetrahydro-1H-pyrazolo[4,3-c]pyridin-1-yl)piperidin-1-yl)-N-(3-((2,6-dioxopiperidin-3-yl)amino)phenyl)-11-oxoundecanamide], for which the inhibition at 0.01 µM in assay [5] (p300, 10 nM, Table 4) is less than 20%. The compound further came in with a half-inhibitory concentration (IC50) in assay [6] of 592 nM.
